Measurements reported in PubChem BioAssay AID248 (DTP/NCI, 2004).
Values joined by “and” are separate entries in the source; they are usually repeats but may differ in a detail not shown here. Equal entries are not always repeated. Toxic doses and inconclusive results are not listed. Cut-off read from the data, not from the text of the source: active = T/C of 150% or more; inactive = T/C below 125%.

Test system: L1210 leukemia ip in BDF1 mice, survival T/C
Assay: NCI In Vivo Anticancer Drug Screen. Data for tumor model L1210 Leukemia (intraperitoneal) in B6D2F1 (BDF1) mice
Settings: endpoint: mean survival time, higher = longer survival
Summary of the method: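 Each compound was tested against a transplantable tumor grown in mice. The endpoint was survival, with treated animals benchmarked against vehicle controls as a simple ratio.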

[1] = dose: 25.0 mg/kg/injection, schedule: Q01DX009 (ip), vehicle: saline
[2] = dose: 50.0 mg/kg/injection, schedule: Q01DX009 (ip), vehicle: saline
[3] = dose: 100.0 mg/kg/injection, schedule: Q04DX003 (ip), vehicle: saline
[4] = dose: 12.5 mg/kg/injection, schedule: Q01DX009 (ip), vehicle: saline
[5] = dose: 50.0 mg/kg/injection, schedule: Q04DX003 (ip), vehicle: saline

Measured: T/C

Clc1cccc(C[N+]23CC[N+](Cc4cccc(Cl)c4)(CC2)C3)c1
inactive: dose: 100.0 mg/kg/injection, schedule: Q01DX001 (ip), vehicle: saline 103 % of control | dose: 200.0 mg/kg/injection, schedule: Q01DX001 (ip), vehicle: saline 111 % of control

NCCc1cnc2ccccc2n1
inactive: [1] 95 % of control | [2] 97 % of control | dose: 100.0 mg/kg/injection, schedule: Q01DX009 (ip), vehicle: saline 96 % of control | [3] 98 % of control

Cc1cccc(N)n1
inactive: dose: 25.0 mg/kg/injection, schedule: Q04DX002 (ip), vehicle: saline 89 % of control | dose: 50.0 mg/kg/injection, schedule: Q04DX002 (ip), vehicle: saline 92 % of control

C=CC#N
inactive: dose: 6.0 mg/kg/injection, schedule: Q01DX009 (ip), vehicle: saline 95 % of control | dose: 12.0 mg/kg/injection, schedule: Q01DX009 (ip), vehicle: saline 93 % of control | [4] 98 % of control | [1] 93 % of control | dose: 50.0 mg/kg/injection, schedule: Q01DX009 (ip), vehicle: carboxymethylcellulose (CMC) 93 % of control | [2] 94 % of control and 105 % of control | [5] 91 % of control | dose: 100.0 mg/kg/injection, schedule: Q01DX009 (ip), vehicle: carboxymethylcellulose (CMC) 92 % of control | dose: 200.0 mg/kg/injection, schedule: Q01DX001 (ip), vehicle: carboxymethylcellulose (CMC) 90 % of control | dose: 200.0 mg/kg/injection, schedule: Q01DX009 (ip), vehicle: carboxymethylcellulose (CMC) 93 % of control | dose: 400.0 mg/kg/injection, schedule: Q01DX001 (ip), vehicle: carboxymethylcellulose (CMC) 95 % of control | dose: 400.0 mg/kg/injection, schedule: Q01DX009 (ip), vehicle: carboxymethylcellulose (CMC) 97 % of control | dose: 600.0 mg/kg/injection, schedule: Q01DX001 (ip), vehicle: carboxymethylcellulose (CMC) 98 % of control | dose: 600.0 mg/kg/injection, schedule: Q01DX009 (ip), vehicle: carboxymethylcellulose (CMC) 89 % of control | dose: 800.0 mg/kg/injection, schedule: Q01DX001 (ip), vehicle: carboxymethylcellulose (CMC) 93 % of control | dose: 800.0 mg/kg/injection, schedule: Q01DX009 (ip), vehicle: carboxymethylcellulose (CMC) 95 % of control

CC1(C)NC(=O)N(CCOS(C)(=O)=O)C1=O
inactive: dose: 25.0 mg/kg/injection, schedule: Q04DX003 (ip), vehicle: saline 101 % of control | [5] 98 % of control | [3] 104 % of control | dose: 200.0 mg/kg/injection, schedule: Q04DX003 (ip), vehicle: saline 104 % of control | dose: 400.0 mg/kg/injection, schedule: Q04DX003 (ip), vehicle: saline 93 % of control

CCCCCCCC/C=C\CCCCCCCC(=O)OCCSCCOC(C)=O
inactive: dose: 100.0 mg/kg/injection, schedule: Q01DX009 (ip), vehicle: saline with Tween-80 97 % of control | dose: 100.0 mg/kg/injection, schedule: Q04DX003 (ip), vehicle: saline with Tween-80 89 % of control | dose: 200.0 mg/kg/injection, schedule: Q01DX009 (ip), vehicle: saline with Tween-80 102 % of control | dose: 200.0 mg/kg/injection, schedule: Q04DX003 (ip), vehicle: saline with Tween-80 92 % of control | dose: 400.0 mg/kg/injection, schedule: Q01DX009 (ip), vehicle: saline with Tween-80 102 % of control | dose: 400.0 mg/kg/injection, schedule: Q04DX003 (ip), vehicle: saline with Tween-80 94 % of control

CC(C)c1ccccc1OC(=O)NC1CCCCC1
inactive: dose: 100.0 mg/kg/injection, schedule: Q04DX002 (ip), vehicle: Klucel (hydroxypropylcellulose) (HPC) 96 % of control | dose: 200.0 mg/kg/injection, schedule: Q04DX002 (ip), vehicle: Klucel (hydroxypropylcellulose) (HPC) 110 % of control | dose: 400.0 mg/kg/injection, schedule: Q04DX002 (ip), vehicle: Klucel (hydroxypropylcellulose) (HPC) 104 % of control

Cn1cnc([N+](=O)[O-])c1[Se]c1ncnc2c1c(C#N)cn2C1OC(CO)C(O)C1O (configuration not stated)
inactive: dose: 6.25 mg/kg/injection, schedule: Q01DX009 (ip), vehicle: saline 111 % of control | dose: 12.5 mg/kg/injection, schedule: Q01DX005 (ip), vehicle: saline 95 % of control | [4] 113 % of control | dose: 15.0 mg/kg/injection, schedule: Q01DX009 (ip), vehicle: saline 103 % of control | dose: 25.0 mg/kg/injection, schedule: Q01DX005 (ip), vehicle: saline 111 % of control | [1] 108 % of control and 117 % of control | dose: 42.0 mg/kg/injection, schedule: Q01DX009 (ip), vehicle: saline 110 % of control

C=C(C)C1(Cc2ccccc2)C(=O)NC(=S)NC1=O
inactive: dose: 9.38 mg/kg/injection, schedule: Q01DX001 (ip), vehicle: saline 91 % of control | dose: 10.0 mg/kg/injection, schedule: Q01DX001 (ip), vehicle: saline 102 % of control
